# From paper PMC11078990, “Identification and characterization of small molecule inhibitors of the LINE-1 retrotransposon endonuclease” (Nature Communications, 2024)
# Several values for one entry are separate records, joined by “and”; a condition that tells them apart may be missing. Equal values may be shown once. Read-outs that look alike come from different tables or passages of the source.
# Experiments:
# [1] = system: substrate oligonucleotide used in the EN activity assay; assay type: binding; set-up: key to Binding Detected? (Y/N): Binding Detected? (Y/N); Binding Detected? (Y/N)
# L1 retrotransposition = test: HeLa dual-luciferase L1 retrotransposition assay; assay type: cell-based, human; conditions: for L1 retrotransposition, average: average of 4 replicates; for Effect on L1 retrotransposition: HeLa cells
# [2] = target: L1 EN (LINE-1 retrotransposon endonuclease domain) (Homo sapiens, UniProt O00370, N5T); test: Fluorescent oligonucleotide EN nicking activity assay; assay type: biochemical
# Sequence of L1 EN (LINE-1 retrotransposon endonuclease domain) (O00370 1-239 N5T): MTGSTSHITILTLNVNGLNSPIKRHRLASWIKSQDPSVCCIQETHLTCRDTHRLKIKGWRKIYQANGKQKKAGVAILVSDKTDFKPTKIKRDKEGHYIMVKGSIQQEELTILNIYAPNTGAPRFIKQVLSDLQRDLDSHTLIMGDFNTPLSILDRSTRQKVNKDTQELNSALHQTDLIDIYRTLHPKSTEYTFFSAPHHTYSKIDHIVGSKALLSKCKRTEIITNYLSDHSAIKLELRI
# APE1 = target: T1, APE1 (Homo sapiens, UniProt P27695); test: APE1 fluorescent oligonucleotide activity assay (abasic site substrate); assay type: biochemical; conditions: for activity at 25 µM: read-out: APE1 activity (%); for Percent APE1 activity, average / Percent APE1 activity, replicates: 250 µM, Supplementary Fig. 6b; for Percent APE1 activity, average: n=3; for Percent APE1 activity, replicates: replicates 1-3
# T1 construct: purchased New England Biolabs (NEB) M0282S
# HeLa Tet-On cells = conditions: human
# [3] = read-out: EN activity, percent of no inhibitor control
# [4] = [Inhibitor] 25 μM, technical replicates 1-3, Fig. 2b source data, 25 µM
# [5] = [Inhibitor] 50 μM, technical replicates 1-3, Fig. 2b source data, 50 µM
# [6] = [Inhibitor] 100 μM, technical replicates 1-3, Fig. 2b source data, 100 µM
# [7] = [Inhibitor] 100 μM, technical replicates 1-3, Fig. 2b source data, read-out: EN activity, percent of no inhibitor control
# [8] = [Inhibitor] 250 μM, technical replicates 1-3, Fig. 2b source data, 250 µM
# [9] = [Inhibitor] 500 μM, technical replicates 1-3, Fig. 2b source data, 500 µM
# [10] = [Inhibitor] 500 μM, technical replicates 1-3, Fig. 2b source data, read-out: EN activity, percent of no inhibitor control
# [11] = [Inhibitor] 1000 μM, technical replicates 1-3, Fig. 2b source data, 1000 µM
# [12] = [Inhibitor] 1000 μM, technical replicates 1-3, Fig. 2b source data, read-out: EN activity, percent of no inhibitor control
# [13] = compound at 25 μM, average of 3 replicates
# [14] = inhibitors at 25 μM, relative to 0 μM inhibitor control, mean ± s.d., 3 independent experiments
smiles,measurement,setting,value
O=C1c2ccc(Oc3ccc4c(c3)C(=O)N(Nc3ccc([N+](=O)[O-])cc3[N+](=O)[O-])C4=O)cc2C(=O)N1Nc1ccc([N+](=O)[O-])cc1[N+](=O)[O-] [AD13],Binding Detected? (Y/N),[1],N
same,"Luciferase (retrotransposition), average",L1 retrotransposition,4.925
same,"Luciferase (retrotransposition), replicates",L1 retrotransposition,6.1144 and 4.934 and 4.878 and 3.774
same,"EN activity, percent of no inhibitor control",[2]; 0.5 µM,119.788% and 111.52%
same,"EN activity, percent of no inhibitor control",[2]; 10 µM,92.6481% and 80.1764%
same,"EN activity, percent of no inhibitor control",[2]; 25 µM,33.9668% and 41.2844%
same,"EN activity, percent of no inhibitor control",[2]; 50 µM,7.541% and 8.862% and 3.766%
same,"EN activity, percent of no inhibitor control",[2]; 100 µM,1.558% and 1.832%
same,"EN activity, percent of no inhibitor control",[2]; 250 µM,1.124% and 2.509% and 2.58%
same,"EN activity, percent of no inhibitor control",[2]; 500 µM,0.9149% and 2.171% and 1.168%
same,"EN activity, percent of no inhibitor control",[2]; 1000 µM,5.545% and 2.613% and 9.084%
same,remaining activity at 0.5 µM,[2]; [3],114%
same,remaining activity at 10 µM,[2]; [3],97.9%
same,remaining activity at 25 µM,[2]; [3],25.1%
same,remaining activity at 100 µM,[2]; [3],0.968%
same,remaining activity at […],[2]; [3],89.7%
same,"APE1 percent activity, Replicate 1",APE1,97.407%
same,"APE1 percent activity, Replicate 2",APE1,88.0071%
same,"APE1 percent activity, Replicate 3",APE1,67.6438%
same,"APE1 percent activity, average",APE1,84.3526%
same,activity at 25 µM,APE1,84.4 ± 15.2%
same,"PrestoBlue (viability), average",HeLa Tet-On cells,12.09
C[C@H]1C[C@H](C)CN(CCCNc2ccc(C(=O)Nc3ccc(C(F)(F)F)cc3)cc2[N+](=O)[O-])C1 [AD9],Binding Detected? (Y/N),[1],N
same,"L1 retrotransposition, average","L1 retrotransposition; 0.2 μM inhibitor, Figure 4b concentration-dependent inhibition",1.898
same,"L1 retrotransposition, average","L1 retrotransposition; 0.5 μM inhibitor, Figure 4b",2.458
same,"L1 retrotransposition, average","L1 retrotransposition; 1 μM inhibitor, Figure 4b",2.133
same,"L1 retrotransposition, average","L1 retrotransposition; 5 μM inhibitor, Figure 4b",1.566
same,"L1 retrotransposition, average","L1 retrotransposition; 10 μM inhibitor, Figure 4b",0.7154
same,"L1 retrotransposition, average","L1 retrotransposition; 20 μM inhibitor, Figure 4b",1.222
same,"L1 retrotransposition, average","L1 retrotransposition; 35 μM inhibitor, Figure 4b",0.4788
same,"Luciferase (retrotransposition), average","L1 retrotransposition; Figure 4a Graph 2, 50 μM, 0 μM average 9.679",2.116
same,"Luciferase (retrotransposition), replicates","L1 retrotransposition; Figure 4a Graph 2, 50 μM, Replicates 1-4, 0 μM average 9.679",3.949 and 1.344 and 2.584 and 0.5874
same,Effect on L1 retrotransposition,L1 retrotransposition,some activity in the retrotransposition assay
same,"EN activity, percent of no inhibitor control","[2]; [Inhibitor] 2 μM, technical replicates 1-3, Fig. 2b source data, 2 µM",91.056% and 80.4005%
same,remaining activity at 2 µM,"[2]; [Inhibitor] 2 μM, technical replicates 1-3, Fig. 2b source data, read-out: EN activity, percent of no inhibitor control",100%
same,"EN activity, percent of no inhibitor control","[2]; [Inhibitor] 10 μM, technical replicates 1-3, Fig. 2b source data, 10 µM",101.14% (2×) and 73.8761%
same,"EN activity, percent of no inhibitor control",[2]; [4],96.0191%
same,remaining activity at 25 µM,"[2]; [Inhibitor] 25 μM, technical replicates 1-3, Fig. 2b source data, read-out: EN activity, percent of no inhibitor control",109%
same,"EN activity, percent of no inhibitor control",[2]; [5],139.387% and 77.4751% and 117.995%
same,"EN activity, percent of no inhibitor control",[2]; [6],89.4903%
same,remaining activity at 100 µM,[2]; [7],85.7%
same,"EN activity, percent of no inhibitor control",[2]; [8],70.6219%
same,remaining activity at 250 µM,"[2]; [Inhibitor] 250 μM, technical replicates 1-3, Fig. 2b source data, read-out: EN activity, percent of no inhibitor control",83.4%
same,"EN activity, percent of no inhibitor control",[2]; [9],47.0918%
same,remaining activity at 500 µM,[2]; [10],45.2%
same,"EN activity, percent of no inhibitor control",[2]; [11],38.5425%
same,remaining activity at 1000 µM,[2]; [12],31.3%
same,"EN activity, percent of no inhibitor control","[2]; [Inhibitor] 2000 μM, technical replicates 1-3, Fig. 2b source data, 2000 µM",14.4137%
same,remaining activity at 2000 µM,"[2]; [Inhibitor] 2000 μM, technical replicates 1-3, Fig. 2b source data, read-out: EN activity, percent of no inhibitor control",28.7%
same,"Percent APE1 activity, average",APE1,100.1%
same,"Percent APE1 activity, replicates",APE1,118.893% and 92.7882% and 88.5535%
same,"APE1 percent activity, Replicate 1","APE1; compound at 25 μM, Replicate 1",119.501%
same,"APE1 percent activity, Replicate 2","APE1; compound at 25 μM, Replicate 2",114.522%
same,"APE1 percent activity, Replicate 3","APE1; compound at 25 μM, Replicate 3",113.798%
same,"APE1 percent activity, average",APE1; [13],115.94%
same,activity at 25 µM,APE1; [14],116 ± 3.1%
same,"PrestoBlue (viability), average","HeLa Tet-On cells; 48 h, 50 μM",17.51
O=C(Cn1nc(-c2ccc(Br)cc2)ccc1=O)NC[C@H]1CC[C@H](C(=O)O)CC1 [AD43],Binding Detected? (Y/N),[1],N
same,"Luciferase (retrotransposition), average","L1 retrotransposition; Figure 4a Graph 5, 50μM, 0μM average 4.537",2.141
same,"Luciferase (retrotransposition), replicates","L1 retrotransposition; Figure 4a Graph 5, 50μM, Replicates 1-4, 0μM average 4.537",2.066 and 2.337 and 2.1059 and 2.055
same,Effect on L1 retrotransposition,L1 retrotransposition,some activity in the retrotransposition assay
same,"EN activity, percent of no inhibitor control","[2]; [Inhibitor] 5 μM, technical replicates 1-3, Fig. 2b source data, 5 µM",82.7533% and 93.1928% and 121.814%
same,"EN activity, percent of no inhibitor control",[2]; [4],125.36% and 146.969% and 130.066%
same,"EN activity, percent of no inhibitor control",[2]; [5],105.857% and 111.128%
same,remaining activity at 50 µM,"[2]; [Inhibitor] 50 μM, technical replicates 1-3, Fig. 2b source data, read-out: EN activity, percent of no inhibitor control",117%
same,"EN activity, percent of no inhibitor control",[2]; [6],119.496% and 103.054%
same,remaining activity at 100 µM,[2]; [7],106%
same,"EN activity, percent of no inhibitor control",[2]; [8],70.4269% and 99.2352% and 82.7621%
same,"EN activity, percent of no inhibitor control",[2]; [9],75.3754% and 92.6354%
same,remaining activity at 500 µM,[2]; [10],82.7%
same,"EN activity, percent of no inhibitor control",[2]; [11],36.4624% and 21.4688%
same,remaining activity at 1000 µM,[2]; [12],31.2%
same,"EN activity, percent of no inhibitor control","[2]; [Inhibitor] 2500 μM, technical replicates 1-3, Fig. 2b source data, 2500 µM",-1.238% and -2.463% and -2.08%
same,"Percent APE1 activity, average",APE1,116.3%
same,"Percent APE1 activity, replicates",APE1,119.605% and 105.469% and 123.903%
same,"APE1 percent activity, Replicate 1","APE1; compound at 25 μM, Replicate 1",116.306%
same,"APE1 percent activity, Replicate 2","APE1; compound at 25 μM, Replicate 2",108.363%
same,"APE1 percent activity, Replicate 3","APE1; compound at 25 μM, Replicate 3",123.152%
same,"APE1 percent activity, average",APE1; [13],115.94%
same,activity at 25 µM,APE1; [14],116 ± 7.4%
same,"PrestoBlue (viability), average","HeLa Tet-On cells; 48 h, 50 μM",6.621
